In brackets after ≈: the same amount, converted by molar mass. Like-named read-outs stand apart in the source and are kept apart here.
Assays:
Aspergillus niger = assay: antifungal activity, serial dilution method; format: cell-based
Penicillium = assay: antifungal activity, serial dilution method; format: cell-based, Penicillium niger
Leptosphaeria salvinii = assay: antifungal activity, serial dilution method; format: cell-based; details: Nakataea oryzae
Saccharomyces cerevisiae = assay: antifungal activity, serial dilution method; format: cell-based
Sclerotinia sclerotiorum = assay: antifungal activity, serial dilution method; format: cell-based; details: Sclerotinia sclerotiorum (kidney bean stem rot); 1% glucose-bouillon agar
Pyricularia oryzae = assay: microbe, parasite or virus in culture; format: cell-based
[1] = test system: Colletotrichum lagenarium; assay: antifungal activity, serial dilution method; format: cell-based; details: Colletotrichum orbiculare
Cochliobolus miyabeanus = assay: antifungal activity, serial dilution method; format: cell-based; details: Bipolaris oryzae
Botrytis cinerea = assay: antifungal activity, serial dilution method; format: cell-based; details: Botrytis cinerea (gray mold); 1% glucose-bouillon agar
[2] = test system: Tetrahymena pyriformis W strain; assay: antiprotozoal activity, broth dilution method; format: cell-based; details: 28° C., 44-48 hours, pH 7.0, read-out: Growth inhibition MIC Tetrahymena
Hamigera = assay: antimycotic activity, paper disk inhibition circle; format: cell-based; details: 48 h; 8 mm paper disk, 3 mg/ml, 37° C., 2 days; read-out: Growth inhibition Hamigera
Protocol: (§1) Referring to the antimycotic activity presented in Table 2, Cryptoccoccus neoformans and others were used as the test microbes, a paper disk (8 mm in diameter) was immersed in an aqueous solution of each test compound having a concentration of 3 mg/ml, air dried and placed on an agar medium, then incubation was conducted at 37° C. for 2 days, and the inhibition circle was measured. When the diameter of the inhibition circle was not larger than 8 mm, 8-10 mm, 10-20 mm, or larger than 20 mm, the activity was judged as -, ±, + or ++, respectively.

Cryptococcus neoformans = assay: antimycotic activity, paper disk inhibition circle; format: cell-based; details: 48 h, 8 mm paper disk, 3 mg/ml, 37° C., 2 days, read-out: Growth inhibition Cryptococcus
Protocol: as §1

Rhodotorula = assay: antimycotic activity, paper disk inhibition circle; format: cell-based; details: 48 h, 8 mm paper disk, 3 mg/ml, 37° C., 2 days, read-out: Growth inhibition Rhodotorula
Protocol: as §1

[3] = test system: Rauscher virus-induced promyelocytic leukemia cells R453; assay: cell proliferation inhibiting activity against R453 cells; format: cell-based; details: Mus musculus, read-out: cell proliferation inhibiting activity (GD50 value)
[4] = test system: human myelocytic leukemia cells HL-60; assay: growth inhibiting effect (IG effect) on HL-60; format: cell-based; details: HL-60, 120 h, 5 day culture, read-out: IG effect on HL-60 GD50
CDF1 mice = assay: toxicity in CDF1 mice; format: in vivo, mouse; details: intraperitoneal 100 mg/kg, observation period one week
Protocol: The compounds of this invention are of relatively low toxicity. For example, the compound of Example 7 causes no deaths in CDF1 mice even at an intraperitoneal dose of 100 mg/kg (observation period: one week). The hemolytic activity of these compounds is also low in general. For example, in a hemolysis test (with human erythrocytes) by the method of Gottfried et al. [J. Lipid Research, 4, 57 (1963)], the 50% hemolytic concentration of the compound of Example 15 was about 10 μg/ml.

[5] = test system: mouse spontaneous myelocytic leukemia cells MI (resistant clone); assay: cell proliferation inhibiting activity against MI cells; format: cell-based; details: read-out: cell proliferation inhibiting activity (GD50 value)
[6] = Aspergillus niger (black mold), 1% glucose-bouillon agar, read-out: MIC
[7] = Penicillium niger (blue mold), 1% glucose-bouillon agar, read-out: MIC
[8] = Leptosphaeria salvinii (rice stem rot), 1% glucose-bouillon agar, read-out: MIC
[9] = Saccharomyces cerevisiae (brewer's yeast), 1% glucose-bouillon agar, read-out: MIC
[10] = Colletotrichum lagenarium (cucumber anthracnose), 1% glucose-bouillon agar, read-out: MIC

| Compound | MIC (Aspergillus niger; [6]) | MIC (Leptosphaeria salvinii; [8]) | MIC (Sclerotinia sclerotiorum) | MIC (Pyricularia oryzae) | MIC [1, 10] | MIC (Cochliobolus miyabeanus) | MIC (Botrytis cinerea) | MIC [2] | zone of inhibition at 3000 µg/mL (Cryptococcus neoformans) | other results |
| --- | --- | --- | --- | --- | --- | --- | --- | --- | --- | --- |
| CCCCCCCCCCCCCOCCOCCOP(=O)([O-])OCC[N+](C)(C)C [Ex.] | 25 µg/mL (≈ 55.1 µM) | 12.5 µg/mL (≈ 27.6 µM) | 100 µg/mL (≈ 220 µM) | 6.25 µg/mL (≈ 13.8 µM) | 3.12 µg/mL (≈ 6.88 µM) | 25 µg/mL (≈ 55.1 µM) | 25 µg/mL (≈ 55.1 µM) | – | – | MIC (Penicillium; [7]): 12.5 µg/mL (≈ 27.6 µM); MIC (Saccharomyces cerevisiae; [9]): 12.5 µg/mL (≈ 27.6 µM) |
| CCCCCCCCCCCCOCCOCCOCCOCCOCCOP(=O)([O-])OCC[n+]1ccccc1 [Example 2, 3,6,9,12,15-Pentaoxaheptacosyl 2-pyridinioethyl phosphate] | – | – | – | – | – | – | – | > 4 µg/mL | 8 to 10 mm | zone of inhibition at 3000 µg/mL (Hamigera): < 8 mm; zone of inhibition at 3000 µg/mL (Rhodotorula): 10 to 20 mm |
| CCCCCCCCCCCCOCCOCCOCCOCCOCCOP(=O)([O-])OCC[N+](C)(C)C [Example 3, 3,6,9,12,15-Pentaoxaheptacosyl 2-trimethylammonioethyl phosphate] | – | – | – | – | – | – | – | > 4 µg/mL | < 8 mm | – |
| CCCCCCCC/C=C\CCCCCCCCOCCOCCOP(=O)(O)OCCN [Example 5, 3,6-Dioxatetracos-15(Z)-enyl 2-aminoethyl phosphate] | – | – | – | – | – | – | – | 4 µg/mL | 8 to 10 mm | – |
| CCCCCCCC/C=C\CCCCCCCCOCCOCCOP(=O)([O-])OCC[N+](C)(C)C [Example 7, 3,6-Dioxatetracos-15(Z)-enyl 2-trimethylammonioethyl phosphate] | 25 µg/mL | 25 µg/mL | – | 3.12 µg/mL | 25 µg/mL | 25 µg/mL | 6.25 µg/mL | 0.4 µg/mL | > 20 mm | IC50 [3]: 2 to 3 µg/mL; IC50 [4]: 1 to 2 µg/mL; MIC (Saccharomyces cerevisiae; [9]): 12.5 µg/mL; deaths (CDF1 mice): no deaths; IC50 [5]: 8 to 11 µg/mL; zone of inhibition at 3000 µg/mL (Hamigera): > 20 mm; zone of inhibition at 3000 µg/mL (Rhodotorula): 10 to 20 mm |
| CCCCCCCC/C=C\CCCCCCCCOCCOCCOP(=O)(O)OCCNC(C)(C)C [Example 8, 3,6-Dioxatetracos-15(Z)-enyl 2-tert-butylaminoethyl phosphate] | – | – | – | – | – | – | – | > 4 µg/mL | – | – |
| CCCCCCCC/C=C\CCCCCCCCOCCOCCOCCOCCOP(=O)(O)OCCN [Example 10, 3,6,9,12-Tetraoxatriacont-21(Z)-enyl 2-aminoethyl phosphate] | – | – | – | – | – | – | – | > 4 µg/mL | 10 to 20 mm | IC50 [4]: 1 to 2 µg/mL |
| CCCCCCCCCCCCOCCOCCOP(=O)(O)OCCN [Example 12, 2-[2-(Dodecyloxy)ethoxy]ethyl 2-aminoethyl phosphate] | 25 µg/mL | – | 25 µg/mL | 100 µg/mL | 25 µg/mL | 50 µg/mL | 50 µg/mL | 2 to 4 µg/mL | > 20 mm | IC50 [4]: 5 µg/mL; MIC (Saccharomyces cerevisiae; [9]): 100 µg/mL; zone of inhibition at 3000 µg/mL (Hamigera): 10 to 20 mm; zone of inhibition at 3000 µg/mL (Rhodotorula): 10 to 20 mm |
| CCCCCCCCCCCCOCCOCCOCCOP(=O)(O)OCCN [Example 13, 3,6,9-Trioxaheneicosanyl 2-aminoethyl phosphate] | 25 µg/mL | – | 25 µg/mL | 100 µg/mL | 25 µg/mL | 50 µg/mL | 50 µg/mL | 4 µg/mL | 10 to 20 mm | MIC (Saccharomyces cerevisiae; [9]): 100 µg/mL; zone of inhibition at 3000 µg/mL (Hamigera): 10 to 20 mm; zone of inhibition at 3000 µg/mL (Rhodotorula): 10 to 20 mm |
| CCCCCCCCCCCCOCCOCCOCCOCCOP(=O)(O)OCCN [Example 14, 3,6,9,12-Tetraoxatetracosyanyl 2-aminoethyl phosphate] | – | – | – | – | – | – | – | 4 µg/mL | 10 to 20 mm | zone of inhibition at 3000 µg/mL (Hamigera): 10 to 20 mm; zone of inhibition at 3000 µg/mL (Rhodotorula): 10 to 20 mm |
| CCCCCCCCCCCCOCCOCCOCCOP(=O)([O-])OCC[n+]1ccccc1 [Example 16, 3,6,9-Trioxaheneicosanyl 2-pyridinioethyl phosphate] | 25 µg/mL | 25 µg/mL | 50 µg/mL | 25 µg/mL | 12.5 µg/mL | 25 µg/mL | 12.5 µg/mL | > 4 µg/mL | > 20 mm | MIC (Penicillium; [7]): 12.5 µg/mL; MIC (Saccharomyces cerevisiae; [9]): 50 µg/mL; zone of inhibition at 3000 µg/mL (Hamigera): 10 to 20 mm; zone of inhibition at 3000 µg/mL (Rhodotorula): 10 to 20 mm |
| CCCCCCCCCCCCCCCCCCOCCOCCOP(=O)([O-])OCC[N+](C)(C)C [Example 18, 3,6-Dioxatetracoxyl 2-trimethylammonioethyl phosphate] | > 100 µg/mL | – | > 100 µg/mL | 12.5 µg/mL | > 100 µg/mL | > 100 µg/mL | 25 µg/mL | ≥ 4 µg/mL | 10 to 20 mm | MIC (Penicillium; [7]): > 100 µg/mL; MIC (Leptosphaeria salvinii): 12.5 µg/mL |
| CCCCCCCCCCOCCOCCOP(=O)([O-])OCC[N+](C)(C)C [Example 21, 3,6-Dioxahexadecyl 2-trimethylammonioethyl phosphate] | – | – | – | – | – | – | – | 2 µg/mL | 10 to 20 mm | – |
| CCCCCCCCCCOCCOCCOP(=O)(O)OCCN [Example 22, 3,6-Dioxahexadecyl 2-aminoethyl phosphate] | – | – | – | – | – | – | – | 4 µg/mL | < 8 mm | – |
| CCCCCCCCCCCCCCOCCOCCOP(=O)(O)OCCN [Example 24, 3,6-Dioxaeicosyl 2-aminoethyl phosphate] | 12.5 µg/mL | > 100 µg/mL | 50 µg/mL | 25 µg/mL | 25 µg/mL | 100 µg/mL | 25 µg/mL | 1 to 2 µg/mL | 10 to 20 mm | MIC (Penicillium; [7]): 6.25 µg/mL |
| CCCCCCCCCCCCOCCOCCOP(=O)([O-])OCC[N+](C)(C)C [Example 25, 3,6-Dioxaoctadecyl 2-trimethylammonioethyl phosphate] | 25 µg/mL | 6.25 µg/mL | 25 µg/mL | 12.5 µg/mL | 1.56 µg/mL | 25 µg/mL | 6.25 µg/mL | 0.4 µg/mL | > 20 mm | MIC (Penicillium; Penicillium): 12.5 µg/mL; MIC (Saccharomyces cerevisiae; Saccharomyces cerevisiae): 12.5 µg/mL |
| CCCCCCCCCCCCCCOCCOCCOP(=O)([O-])OCC[N+](C)(C)C [Example 26, 3,6-Dioxaeicosyl 2-trimethylammonioethyl phosphate] | – | 6.25 µg/mL | 50 µg/mL | 3.12 µg/mL | 1.56 µg/mL | 12.5 µg/mL | 6.25 µg/mL | 0.2 µg/mL | 10 to 20 mm | MIC (Aspergillus niger; Aspergillus niger): 12.5 µg/mL; MIC (Penicillium; [7]): 6.25 µg/mL; MIC (Saccharomyces cerevisiae; [9]): 6.25 µg/mL |
| CCCCCCCCCCCCCOCCOCCOP(=O)([O-])OCC[n+]1ccccc1 [Example 28, 3,6-Dioxanonadecyl 2-pyridinioethyl phosphate] | 25 µg/mL | 12.5 µg/mL | 25 µg/mL | 6.25 µg/mL | – | 25 µg/mL | 12.5 µg/mL | 4 µg/mL | > 20 mm | MIC (Penicillium; [7]): 12.5 µg/mL; MIC [1]: 6.25 µg/mL |
| CCCCCCCCCCCCCOCCOCCOP(=O)([O-])OCC[N+](C)(C)C [Example 29, 3,6-Dioxanonadecyl 2-trimethylammonioethyl phosphate] | – | – | – | – | – | – | – | ≤ 1 µg/mL | > 20 mm | – |
| CCCCCCCCCCCCOCCOCCOP(=O)([O-])OCC[n+]1ccc2ccccc2c1 [Example 32, 3,6-Dioxaoctadecyl 2-isoquinolinioethyl phosphate] | – | – | – | – | – | – | – | 4 µg/mL | > 20 mm | – |
| CCCCCCCCCCCCCCOCCOCCOP(=O)([O-])OCC[n+]1ccccc1 [Example 34, 3,6-Dioxaeicosyl 2-pyridinioethyl phosphate] | – | – | – | – | – | – | – | 4 µg/mL | 10 to 20 mm | – |
